Laboratory results from article PMC6508677, “Identification of druggable small molecule antagonists of the Plasmodium falciparum hexose transporter PfHT and assessment of ligand access to the glucose permeation pathway via FLAG-mediated protein engineering” (PLoS ONE, 2019).
Where “and” joins values, the source holds several entries; their conditions need not be identical. Equal entries are not always repeated.

Assays:
PfHT [1] = target: T1, PfHT (Plasmodium falciparum, UniProt Q7KWJ5); experiment: [3H]-D-glucose specific uptake into liposomes containing purified PfHT; type: biochemical; design: expressed in transfected cells; host or cells: HEK293 (HEK293-FLIP, native hGLUT1 knocked down by shRNA); details: for D-Glc - L-Glc Uptake, Ave / D-Glc - L-Glc Uptake, individual experiments: PfHT liposomes
T1 sequence (Q7KWJ5 1-504): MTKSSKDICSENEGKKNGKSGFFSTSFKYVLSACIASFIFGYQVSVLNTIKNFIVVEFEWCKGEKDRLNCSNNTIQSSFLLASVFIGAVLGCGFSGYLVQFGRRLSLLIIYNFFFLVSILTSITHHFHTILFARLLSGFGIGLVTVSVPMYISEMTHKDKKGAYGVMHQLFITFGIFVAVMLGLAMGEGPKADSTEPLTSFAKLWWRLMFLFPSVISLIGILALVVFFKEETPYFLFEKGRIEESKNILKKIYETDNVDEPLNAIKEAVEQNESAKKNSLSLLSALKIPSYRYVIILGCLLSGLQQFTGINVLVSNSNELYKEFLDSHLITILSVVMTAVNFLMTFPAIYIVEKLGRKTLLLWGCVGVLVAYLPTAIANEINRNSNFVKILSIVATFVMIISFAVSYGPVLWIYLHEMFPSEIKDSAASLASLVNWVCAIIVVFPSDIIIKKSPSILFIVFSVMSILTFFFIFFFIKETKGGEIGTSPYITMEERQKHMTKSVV

PfHT [2] = target: T1, PfHT; experiment: Kinetic analysis (Dixon plot) of zero-trans D-fructose uptake in HEK293PfHT cells; type: cell-based; design: expressed in transfected cells; host or cells: HEK293 (HEK293-FLIP, native hGLUT1 knocked down by shRNA)
Description: Glucose uptake by P. falciparum was performed essentially as described. P. falciparum strain 3D7 was cultured in 100 mm tissue culture dishes (Techno Plastic Products) in a 2% suspension of human erythrocytes and RPMI 1640 medium until reaching > 7.5% parasitemia. Cells were pelleted via centrifugation and resuspended in RPMI 1640 medium. To determine the uptake of radiolabeled glucose into the parasite, parasites were isolated from infected erythrocytes by permeablization with saponin (0.05 w/v), followed by centrifugation, aspiration of supernatant and washing of the pellet 3X with saline solution (135 mM NaCl, 2 mM KCl, 25 mM HEPES, 0.2 mM glucose and 1 mM MgCl2; pH 7.1) to remove cellular debris. WU-1 or DMSO vehicle were added to 100 μl parasites (resuspended in saline) 5 min prior to the addition of 100 μl [^14C]2-DOG (0.2- μCi/ml final concentration). 2-DG uptake was stopped after 2 min by layering the entire reaction over 300 μl of an oil mixture (5:4 mix of dibutyl phthalate / dinonyl phthalate) in Eppendorf tubes and centrifuged at 15,850 × g for 2 mins. The ratio of the estimated intracellular concentration of radiolabel relative to the extracellular concentration were calculated as described. Uptake of radiolabeled hexose into HEK293 cells was measured in glucose-free HBSS as described previously. Briefly, cells were plated at 400,000 cells/well overnight at 37°C in 24-well plates pre-treated with PEI. After 30-min incubation at 37°C in glucose-free HBSS in the presence of vehicle or increasing concentrations of compound, 2-DG uptake was measured in glucose-free HBSS for 4 min at 37°C. Cultures were washed in ice-cold 1X PBS and lysed in 0.1% Triton X-100 in 1X PBS. Radiolabeled hexose uptake was determined by liquid scintillation counting (Ultima Gold, Thermo Fisher) and normalized to total protein per well. […] Incubation times had been previously determined as being in the linear range of time-dependent radiolabeled hexose uptake (2 min for 2-DG uptake into freed parasites; 2 and 4 min for D-Frc and 2-DG uptake HEK cell lines, respectively). […]

## Cc1ccc(S(=O)(=O)CCNC(=O)c2c(-c3c(Cl)cccc3Cl)noc2C)cc1 [WU-1, 3-(2,6-dichlorophenyl)-5-methyl-N-[2-(4-methylbenzenesulfonyl)ethyl]-1,2-oxazole-4-carboxamide]
PfHT [1]; IC50 for specific D-glucose uptake (D-glucose minus L-glucose) into PfHT liposomes, purified PfHT, zero-trans, mean
  IC50: 5.9 ± 0.8 µM
PfHT [1]; IC50 for specific D-glucose uptake into PfHT liposomes, individual experiments, Expt 1-3
  IC50: 7.34 µM and 4.58 µM and 5.92 µM
PfHT [1]; 0.001 µM WU-1
  D-Glc - L-Glc Uptake, Ave: 21.51 pmol/µg PfHT
  D-Glc - L-Glc Uptake, individual experiments: 20.93 pmol/µg PfHT and 22.42 pmol/µg PfHT and 21.19 pmol/µg PfHT
PfHT [1]; 0.625 µM WU-1
  D-Glc - L-Glc Uptake, Ave: 22.79 pmol/µg PfHT
  D-Glc - L-Glc Uptake, individual experiments: 21.85 pmol/µg PfHT and 22.43 pmol/µg PfHT and 24.08 pmol/µg PfHT
PfHT [1]; 1.25 µM WU-1
  D-Glc - L-Glc Uptake, Ave: 19.33 pmol/µg PfHT
  D-Glc - L-Glc Uptake, individual experiments: 16.67 pmol/µg PfHT and 24.18 pmol/µg PfHT and 17.15 pmol/µg PfHT
PfHT [1]; 2.5 µM WU-1
  D-Glc - L-Glc Uptake, Ave: 18.48 pmol/µg PfHT
  D-Glc - L-Glc Uptake, individual experiments: 16.28 pmol/µg PfHT and 15.54 pmol/µg PfHT and 23.61 pmol/µg PfHT
PfHT [1]; 5 µM WU-1
  D-Glc - L-Glc Uptake, Ave: 10 pmol/µg PfHT
  D-Glc - L-Glc Uptake, individual experiments: 13.49 pmol/µg PfHT and 7.15 pmol/µg PfHT and 9.35 pmol/µg PfHT
PfHT [1]; 10 µM WU-1
  D-Glc - L-Glc Uptake, Ave: 7.99 pmol/µg PfHT
  D-Glc - L-Glc Uptake, individual experiments: 7.38 pmol/µg PfHT and 9.19 pmol/µg PfHT and 7.39 pmol/µg PfHT
PfHT [1]; 20 µM WU-1
  D-Glc - L-Glc Uptake, Ave: 5.15 pmol/µg PfHT
  D-Glc - L-Glc Uptake, individual experiments: 6.58 pmol/µg PfHT and 4.82 pmol/µg PfHT and 4.04 pmol/µg PfHT
PfHT [1]; 40 µM WU-1
  D-Glc - L-Glc Uptake, Ave: 2.74 pmol/µg PfHT
  D-Glc - L-Glc Uptake, individual experiments: 3.05 pmol/µg PfHT and 1.92 pmol/µg PfHT and 3.24 pmol/µg PfHT
PfHT [1]; 80 µM WU-1
  D-Glc - L-Glc Uptake, Ave: -0.29 pmol/µg PfHT
  D-Glc - L-Glc Uptake, individual experiments: 0.605 pmol/µg PfHT and -1.53 pmol/µg PfHT and 0.06 pmol/µg PfHT
PfHT [1]; 160 µM WU-1
  D-Glc - L-Glc Uptake, Ave: -0.167 pmol/µg PfHT
  D-Glc - L-Glc Uptake, individual experiments: 0.75 pmol/µg PfHT and -0.06 pmol/µg PfHT and -1.19 pmol/µg PfHT
PfHT [2]; Ki (Dixon plot, horizontal intercepts), zero-trans D-fructose uptake, HEK293PfHT, mean
  Ki: 4.4 ± 0.3 µM
PfHT [2]; Ki (µM) from individual Dixon lines, one value per D-fructose concentration line
  Ki: 5.32 µM and 4.25 µM and 3.83 µM and 4.22 µM
PfHT [2]; zero-trans D-fructose uptake/hexose influx by PfHT
  mode of inhibition: non-competitive inhibitor
